Data taken from US10792274B2, “Dehydroacetic acid (DHAA) and derivative for uses in treating cancer” (Emory University, priority 2016, dated 2020).
“Also recorded” adds a separate entry of the source.

Legend:
[1] = test system: A2058 cells expressing BRAF V600E; assay: melanoma cell treatment: proliferation, MEK1/ERK1/2 phosphorylation, BRAF-MEK1 binding; assay type: cell-based, human
FLAG-tagged BRAF V600E = target: T1, FLAG-tagged BRAF V600E (Homo sapiens, UniProt P15056, V600E); assay: cellular thermal shift assay, lysates of transfected 293T cells; assay type: binding; settings: 400 μM
T1 construct: FLAG; expressed in transfected cells; host or cells: 293T cells (lysates)
Text: (§1) Whether functional inhibition of acetoacetate would attenuate BRAF V600E tumor growth was examined. Dehydroacetic acid (DHAA) (FIG. 4A) is an inhibitory homologue of acetoacetate.

BRAF V600E [2] = target: T2, BRAF V600E (Homo sapiens, UniProt P15056, V600E); assay: BRAF V600E kinase activity (Vmax and Km), MEK1 as substrate; assay type: biochemical
Protocol: (§2) Whether DHAA inhibits BRAF V600E directly was examined. […] In contrast, DHAA had no effect on BRAF WT-MEK1 binding or MEK1 phosphorylation in a control experiment using purified BRAF WT incubated with MEK1 in the presence of acetoacetate (FIG. 4I left panel). […] This is physiologically consistent with the acetoacetate levels determined as approximately 300 μM in stable HMGCL knockdown A375 and A2058 cells.

BRAF V600E [3] = target: T2, BRAF V600E; assay: 14C-labeled acetoacetate binding assay (radiometric metabolite-protein interaction)
Protocol: (§3) BRAF wild type and mutant proteins were incubated with increasing concentrations of ^14C-labeled acetoacetate.
(§4) A series of radiometric metabolite-protein interaction analyses were performed using ^14C labeled acetoacetate incubated with purified BRAF variants in the presence and absence of DHAA.

[4] = test system: Me1-ST parental or control cells expressing BRAF WT or tBRAF; assay: immortalized melanocyte treatment: proliferation, MEK-ERK activation, BRAF-MEK1 binding; assay type: cell-based
[5] = chronic injection of DHAA to nude mice (tolerability); assay type: in vivo
[6] = test system: WM-266-4 cells expressing BRAF V600D; assay: melanoma cell proliferation; assay type: cell-based
hepatomas = settings: rats fed 4-(methylamino)azobenzene; cited from earlier work
BRAF V600E-MEK1 binding = BRAF V600E-MEK1 binding (Homo sapiens, UniProt P15056, V600E); assay: cell-free in vitro coupled protein-protein binding and kinase assay; assay type: biochemical
Protocol: as §2

BRAF WT-MEK1 binding = BRAF WT-MEK1 binding (Homo sapiens, UniProt P15056); assay: as above; assay type: biochemical; settings: in the presence of acetoacetate
Protocol: as §2

BRAF V600R = BRAF V600R (Homo sapiens, UniProt P15056, V600R); assay: 14C-labeled acetoacetate binding assay; settings: in the presence of 300 μM 14C-labeled acetoacetate
Protocol: as §3, §4

BRAF V600D = BRAF V600D (Homo sapiens, UniProt P15056, V600D); assay: 14C-labeled acetoacetate binding assay; settings: in the presence of 300 μM 14C-labeled acetoacetate
Protocol: as §3, §4

[7] = test system: SK-MEL-5 cells expressing BRAF V600E; assay: melanoma cell proliferation; assay type: cell-based
[8] = test system: Me1-ST cells expressing BRAF V600E; assay: immortalized melanocyte treatment: proliferation, MEK-ERK activation, BRAF-MEK1 binding; assay type: cell-based
[9] = test system: BRAF V600E-expressing human melanoma A375 cells; assay: A375 xenograft in nude mice; assay type: in vivo
[10] = test system: A375 cells expressing BRAF V600E; assay: melanoma cell treatment: proliferation, MEK1/ERK1/2 phosphorylation, BRAF-MEK1 binding; assay type: cell-based, human
[11] = serum and tumor metabolite levels and body weight of xenograft mice; assay type: in vivo
BRAF V600E [12] = target: T2, BRAF V600E; assay: thermal melt shift assay, purified recombinant protein; assay type: binding
Protocol: Arrows in the panel indicate melting temperatures at 0 μM (left) and 400 μM (right).
as §1

[13] = test system: BRAF V600E-expressing human melanoma A2058 cells; assay: A2058 xenograft in nude mice; assay type: in vivo
Text: Xenograft tumor growth and in nude mice inoculated with BRAF V600E-positive human melanoma A2058 fed with normal or high-fat diets followed by intraperitoneal injection with DHAA.

[14] = DHAA at 200 μM, acetoacetate at 300 μM
[15] = BRAF V600E pre-treated with acetoacetate (300 μM)
[16] = co-treatment with DHAA, high-fat diet
[17] = tumors harvested from xenograft mice

BRAF V600E-MEK1 binding, sequence (P15056 whole entry V600E): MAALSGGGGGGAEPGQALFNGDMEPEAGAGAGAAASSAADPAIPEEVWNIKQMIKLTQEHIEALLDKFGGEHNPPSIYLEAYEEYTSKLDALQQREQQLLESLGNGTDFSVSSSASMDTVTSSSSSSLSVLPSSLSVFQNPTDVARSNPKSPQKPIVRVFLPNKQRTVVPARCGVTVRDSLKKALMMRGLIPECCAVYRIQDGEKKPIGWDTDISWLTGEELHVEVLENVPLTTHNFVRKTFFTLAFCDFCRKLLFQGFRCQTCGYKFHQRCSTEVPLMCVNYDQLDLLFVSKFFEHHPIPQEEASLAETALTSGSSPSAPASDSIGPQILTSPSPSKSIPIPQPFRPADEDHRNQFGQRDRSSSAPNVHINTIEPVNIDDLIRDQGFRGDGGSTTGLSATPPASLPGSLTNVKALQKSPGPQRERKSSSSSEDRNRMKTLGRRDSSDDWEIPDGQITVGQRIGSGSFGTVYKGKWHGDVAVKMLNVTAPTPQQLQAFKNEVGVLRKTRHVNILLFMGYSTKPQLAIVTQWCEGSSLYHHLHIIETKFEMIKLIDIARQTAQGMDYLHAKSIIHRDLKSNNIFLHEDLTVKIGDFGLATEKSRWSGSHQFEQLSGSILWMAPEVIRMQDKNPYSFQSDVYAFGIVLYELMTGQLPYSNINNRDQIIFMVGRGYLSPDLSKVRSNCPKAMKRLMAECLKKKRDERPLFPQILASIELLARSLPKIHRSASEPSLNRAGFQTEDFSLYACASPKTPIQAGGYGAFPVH
T2 sequence (P15056 whole entry V600E): as above
BRAF WT-MEK1 binding, sequence (P15056 whole entry): as the sequence (P15056 whole entry V600E) above, with E600V counted along it
T1 sequence (P15056 whole entry V600E): as the sequence (P15056 whole entry V600E) above
BRAF V600R, sequence (P15056 whole entry V600R): as the sequence (P15056 whole entry V600E) above, with E600R counted along it
BRAF V600D, sequence (P15056 whole entry V600D): as the sequence (P15056 whole entry V600E) above, with E600D counted along it

CC(=O)c1c(O)oc(C)cc1=O [DHAA, 3-Acetyl-2-hydroxy-6-methyl-4H-pyran-4-one]
BRAF V600E-MEK1 association [1]: selectively inhibited | cell proliferation [1]: selectively inhibited cell proliferation; also recorded: selectively inhibits | phosphorylation of MEK1 and ERK1/2 [1]: selectively inhibited phosphorylation of MEK1 and ERK1/2 | affinity for BRAF V600E relative to acetoacetate (FLAG-tagged BRAF V600E): higher affinity than acetoacetate | binding in cellular thermal shift assay (FLAG-tagged BRAF V600E): bound only to BRAF V600E | activating effect of acetoacetate on BRAF V600E (increased Vmax, decreased Km) (BRAF V600E [2]; in the presence of acetoacetate (300 μM)): effectively reversed the activating effect of acetoacetate | BRAF V600E kinase activity (Vmax and Km) (BRAF V600E [2]; increasing concentrations of DHAA alone): did not affect BRAF V600E kinase activity | competition with acetoacetate for BRAF V600E binding (BRAF V600E [3]; BRAF V600E pre-treated with 14C-labeled acetoacetate, increasing concentrations of DHAA): competed with acetoacetate for BRAF V600E binding in a dose-dependent manner | block of acetoacetate binding by pre-treatment (BRAF V600E [3]; DHAA 200 μM pre-treatment, 14C-labeled acetoacetate up to 400 μM): sufficient to block acetoacetate binding | competition with acetoacetate for BRAF V600E binding (BRAF V600E [3]; [14]): sufficient to compete | Ki (BRAF V600E [3]; in the presence of 300 μM 14C-labeled acetoacetate): ~88 µM | binding ability of BRAF V600E mutant forms to acetoacetate (BRAF V600E [3]; treatment with DHAA, BRAF V600E and tBRAF V600E): significant decrease in binding ability | BRAF-MEK1 binding [4]: but not parental or control cells | histopathological analyses and weights of diverse organs ([5]; 200 mg/kg/day intraperitoneally, ~4 weeks): did not cause notable differences | components of the gut microbiota ([5]; chronic treatment): altered proportions but no loss of any components | effect on the mouse gut microbiome ([5]; chronic treatment): had no obvious effect | total DNA amount extracted from bacteria in mouse feces ([5]; chronic treatment): unaltered total DNA amount | well-tolerated dose ([5]; intraperitoneally, ~4 weeks): 200 mg/kg/day | toxicity in vivo ([5]; mouse, in vivo): does not cause obvious toxicity in vivo | complete blood counts (CBC) or hematopoietic properties ([5]; representative A375 xenograft mice, compared to the water-treated group): did not alter | cell proliferation [6]: selectively inhibited cell proliferation | induction of hepatomas (hepatomas): inhibitory effect | acetoacetate-enhanced MEK1 binding to BRAF V600E (BRAF V600E-MEK1 binding; [15]): effectively inhibited | phosphorylation of V600E-bound MEK1 (BRAF V600E-MEK1 binding; [15]): effectively inhibited | BRAF V600E-MEK1 binding and phosphorylation of MEK1 enhanced by acetoacetate (BRAF V600E-MEK1 binding; [14]): inhibit BRAF V600E-MEK1 binding and phosphorylation of MEK1 | BRAF WT-MEK1 binding (BRAF WT-MEK1 binding): had no effect | MEK1 phosphorylation (BRAF WT-MEK1 binding): had no effect | Ki (BRAF V600R): ~91 µM | Ki (BRAF V600D): ~88 µM | cell proliferation [7]: selectively inhibited cell proliferation | BRAF V600E-MEK1 binding [8]: selectively inhibited | MEK-ERK activation [8]: selectively inhibited | cell proliferation [8]: selectively inhibited | high-fat diet-dependent enhancement of BRAF V600E-MEK1 binding in tumors ([9]; DHAA, high-fat diet): significantly attenuated | high-fat diet-dependent enhancement of cell proliferation rates (Ki67) in tumors ([9]; DHAA, high-fat diet): significantly attenuated | high-fat diet-dependent enhancement of phosphorylation of MEK1 and ERK1/2 in tumors ([9]; DHAA, high-fat diet): significantly attenuated | high-fat diet-enhanced tumor growth potential [9, 16]: effectively reversed the enhanced tumor growth potential | HMGCL expression in tumors ([9]; mouse, in vivo): without affecting HMGCL expression | BRAF V600E-MEK1 binding in tumors ([9]; single agent): reduced binding between BRAF V600E-MEK1 | cell proliferation rates in tumors (Ki67 IHC staining) ([9]; single agent): reduced cell proliferation rates | phosphorylation of MEK1 and ERK1/2 in tumors ([9]; single agent): selectively inhibited phosphorylation of MEK1 and ERK1/2 | xenograft tumor growth (growth rates, sizes, masses) ([9]; single agent, normal diet): effectively inhibited xenograft tumor growth rates, sizes and masses | BRAF V600E-MEK1 association [10]: selectively inhibited | cell proliferation [10]: selectively inhibited cell proliferation; also recorded: selectively inhibits | phosphorylation of MEK1 and ERK1/2 [10]: selectively inhibited phosphorylation of MEK1 and ERK1/2 | body weight ([11]; effect of treatment): did not affect body weight | serum cholesterol levels ([11]; effect of treatment): did not affect; also recorded: had no effect | serum glucose levels ([11]; effect of treatment): did not affect; also recorded: had no effect | serum levels of 3HB (β-hydroxybutyrate) ([11]; effect of treatment): did not affect; also recorded: had no effect | serum levels of acetoacetate ([11]; effect of treatment): had no effect | acetoacetate levels in tumors [11, 17]: did not affect | β-hydroxybutyrate levels in tumors [11, 17]: did not affect | binding in thermal melt shift assay (BRAF V600E [12]): directly binds | high-fat diet-dependent enhancement of BRAF V600E-MEK1 binding in tumors ([13]; DHAA, high-fat diet): significantly attenuated | high-fat diet-dependent enhancement of cell proliferation rates (Ki67) in tumors ([13]; DHAA, high-fat diet): significantly attenuated | high-fat diet-dependent enhancement of phosphorylation of MEK1 and ERK1/2 in tumors ([13]; DHAA, high-fat diet): significantly attenuated | high-fat diet-enhanced tumor growth potential [13, 16]: effectively reversed the enhanced tumor growth potential; also recorded: reverses high-fat diet-enhanced BRAF V600E tumor growth | HMGCL expression in tumors ([13]; mouse, in vivo): without affecting HMGCL expression | BRAF V600E-MEK1 binding in tumors ([13]; single agent): reduced binding between BRAF V600E-MEK1 | cell proliferation rates in tumors (Ki67 IHC staining) ([13]; single agent): reduced cell proliferation rates | phosphorylation of MEK1 and ERK1/2 in tumors ([13]; single agent): selectively inhibited phosphorylation of MEK1 and ERK1/2 | xenograft tumor growth (growth rates, sizes, masses) ([13]; single agent, normal diet): effectively inhibited xenograft tumor growth rates, sizes and masses
